Efficacy and AC50 cell viability data for 47 compounds are collected here from the supplement of paper PMC10290057.

Counter-ions that a name gives are not always drawn.

Assay [1] relates to HCT116. The assay is described as follows: efficacy (fitted maximal change in viability relative to DMSO control); higher = less cytotoxic (negative = loss of viability). The note with it: 48 h.
Assay [2] concerns HCT116. In words: AC50 cell viability (CellTiter-Glo); higher = less potent. The note with it: 48 h.
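Wherever AC50 cell viability (CellTiter-Glo) is given: HCT116 colorectal carcinoma cells screened at five concentrations per compound, luminescent viability scaled between DMSO wells and empty wells on each plate, curves fitted per compound.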
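Wherever efficacy (fitted maximal change in viability relative to DMSO control) is given: Luminescence-based viability readout, five doses per compound, normalized against on-plate DMSO and empty-well controls, followed by dose-response curve fitting for every drug.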

In the case of `Nc1ccccc1NC(=O)c1ccc(CNc2nccc(-c3cccnc3)n2)cc1` [Mocetinostat], in the assay with HCT116 [1], the efficacy was -73.2%. The AC50 cell viability in the assay with HCT116 [2] was determined as 0.934 µM.
Regarding `NC/1=N/C(=O)C/2=C(/NCC3CN(CN23)C4=CC=C(C=C4)C(=O)N[C@@H](CCC(O)=O)C(O)=O)N1` (some centres undefined) [Modufolin], in the assay with HCT116 [1], the efficacy is -92%. Also, the AC50 cell viability in the assay on HCT116 [2] came out at 8.33 µM.
The like results for `N#CCNC(=O)c1ccc(-c2ccnc(Nc3ccc(N4CCOCC4)cc3)n2)cc1` [Momelotinib] were, in that order, -74.3% and 3.72 µM.
Turning to `C[C@@H]1C[C@H]2[C@@H]3CC\C4=C\C(=O)\C=C/[C@]4(C)[C@@]3(Cl)[C@@H](O)C[C@]2(C)[C@@]1(OC(=O)C5=CC=CO5)C(=O)CCl` [Mometasone furoate], the efficacy with HCT116 [1] was -78.7%. Also, the AC50 cell viability in the assay on HCT116 [2] amounted to 20.9 µM.
For `CC[C@@]1([C@@H]2O[C@@H]([C@H]3O[C@@](O)(CO)[C@H](C)C[C@@H]3C)C[C@@H]2C)CC[C@H]([C@]2(C)CC[C@]3(C[C@H](O)[C@@H](C)[C@@H]([C@@H](C)[C@@H](OC)[C@H](C)C(=O)[O-])O3)O2)O1` [Monensin sodium salt], in that order: -47.4% and 0.456 µM.
The like results for `Oc1ccc(OCc2ccccc2)cc1` [Monobenzone] were, in that order, -47.7% and 18.6 µM.
Take `CCCN(CCC)C(=O)C\1=C\C2=CC=C(C=C2\N=C(N)/C1)C3=CC=C(C=C3)C(=O)N4CCCC4` [Motolimod]: the efficacy in the assay on HCT116 [1] is -45.8%. Besides, in the assay on HCT116 [2], the AC50 cell viability is 18.6 µM.
The like results for `FC(F)(F)c1ccc(/C=C/c2nc(COc3ccc(CCCCn4ccnn4)cc3)co2)cc1` [Mubritinib] were, in that order, -38.5% and 0.0209 µM.
Consider `COc1c(C)c2c(c(O)c1C/C=C(\C)CCC(=O)OCCN1CCOCC1)C(=O)OC2` [Mycophenolate mofetil], for which, in the assay with HCT116 [1], the efficacy is -80.7%. This compound also yielded an AC50 cell viability in the assay on HCT116 [2] of 2.63 µM.
The like results for `COc1c(C)c2c(c(O)c1C/C=C(\C)CCC(=O)O)C(=O)OC2` [Mycophenolic acid] were, in that order, -82% and 2.09 µM.
Regarding `CC(C)(O)C[S+](=O)([O-])Nc1ccc2c(c1)CCN(C(=O)COc1cccnc1)C2` [NAMPT-IN-1], in the assay on HCT116 [1], the efficacy is -92.6%. In the assay with HCT116 [2], this compound showed an AC50 cell viability of 0.0468 µM.
The like results for `O[C@H]1CC[C@@H](Oc2cccc3cnc(Nc4ccc5nc[nH]c5c4)nc23)CC1` [NCB-1026] were, in that order, -64.6% and 0.525 µM.
The like results for `COc1ccc(Nc2cc(-c3cnc(N)nc3)nc(N3CCOCC3)n2)cn1` [NIBR-17] were, in that order, -65.5% and 2.63 µM.
For `[O-][S+]1(=O)/N=C(/NC2=CC(=CC=C2)NC(=O)CCl)C3=CC=CC=C13` [NMS-859], in that order: -85.1% and 26.3 µM.
Turning to `Cc1cc(OCc2nnc(SC3CCCC3)n2-c2cccnc2)ccc1-c1ccc([S+](C)(=O)[O-])cc1` [NMS-873], the efficacy with HCT116 [1] was -104%. This compound also registered an AC50 cell viability in the assay with HCT116 [2] of 1.48 µM.
As for `CN1CCN(c2ccc(OC(F)(F)F)c(Nc3ncc4c(n3)-c3c(c(C(N)=O)nn3CCO)CC4)c2)CC1` [NMS-P937], the efficacy in the assay with HCT116 [1] is -63.9%. Also, in the assay with HCT116 [2], the AC50 cell viability turned out to be 0.0661 µM.
For `CN\1N(C(=O)\C(=C1C)C(=O)NC2=CC=C(OC3=CC=NC4=C3C(=C[NH]4)C5=CC=CC=C5)C(=C2)F)C6=CC=C(F)C=C6` [NPS-1034], in the assay with HCT116 [1], the efficacy is -59.9%. For the same compound, the AC50 cell viability in the assay on HCT116 [2] worked out at 14.8 µM.
As for `CC(C)(Cc1ccc2ccccc2c1)NC[C@@H](O)COc1cccc(Cl)c1C#N` [NPS-2143], the efficacy in the assay with HCT116 [1] is -97.5%. This compound showed an AC50 cell viability in the assay with HCT116 [2] of 9.34 µM.
Consider `COc1cccc([C@@H](C)NCCCc2ccccc2Cl)c1` [NPS-R568], for which the efficacy in the assay with HCT116 [1] is -99.8%. Moreover, the AC50 cell viability in the assay with HCT116 [2] stood at 23.5 µM.
The like results for `Nc1nc(N)c(N=O)c(OCC2CCCCC2)n1` [NU-6027] were, in that order, -64.3% and 13.2 µM.
The like results for `N[S+](=O)([O-])c1ccc(Nc2nc(OCC3CCCCC3)c3[nH]cnc3n2)cc1` [NU-6102] were, in that order, -92.8% and 16.6 µM.
With `O=C1\C=C(OC2=C(C=CC=C12)C3=CC=CC4=C3SC5=C4C=CC=C5)\N6CCOCC6` [NU-7441], in the assay on HCT116 [1], the efficacy is -76.8%. For the same compound, in the assay on HCT116 [2], the AC50 cell viability came to 3.72 µM.
The like results for `Nc1ncnc2c1c(-c1cccc(OCc3ccccc3)c1)cn2[C@H]1C[C@@H](CN2CCC2)C1` [NVP-AEW541] were, in that order, -85.2% and 5.9 µM.
The like results for `CCNC(=O)c1noc(-c2cc(C(C)C)c(O)cc2O)c1-c1ccc(CN2CCOCC2)cc1` [NVP-AUY922] were, in that order, -63.2% and 0.105 µM.
With `COc1ccc(-c2ccc3ncc4c(c3c2)n(-c2ccc(N3CCNCC3)c(C(F)(F)F)c2)c(=O)n4C)cn1` [NVP-BGT226], the efficacy with HCT116 [1] was -117%. This compound also had an AC50 cell viability in the assay with HCT116 [2] of 0.295 µM.
The like results for `Cc1ccc(C(=O)Nc2cccc(C(F)(F)F)c2)cc1Nc1nc(-c2cccnc2)nc2c1cnn2C` [NVP-BHG712] were, in that order, -103% and 8.33 µM.
The like results for `Fc1cc(-c2cccc3ncc(-c4cnn(C5CCNCC5)c4)nc23)cc(F)c1CN1CCOCC1` [NVP-BSK805] were, in that order, -91% and 8.33 µM.
`Cn1cc(-c2ccc3ncc(Cc4ccc5ncccc5c4)n3n2)cn1` [NVP-BVU-972]: the efficacy in the assay with HCT116 [1] is -40.8%. For the same compound, the AC50 cell viability in the assay on HCT116 [2] was found to be 18.6 µM.
For `C[S+](=O)([O-])N1CCC(NC(=O)c2[nH]ncc2NC(=O)c2c(Cl)cccc2Cl)CC1` [NVP-LCQ195], in that order: -64.2% and 0.525 µM.
In the case of `CNC(=O)c1ccccc1Nc1nc(Nc2ccc(N3CCOCC3)cc2OC)ncc1Cl` [NVP-TAE226], the efficacy in the assay with HCT116 [1] was -77.8%. The AC50 cell viability in the assay with HCT116 [2] is 0.833 µM.
Turning to `CCC[S+](=O)([O-])c1nc(NC2CC2)cc(-c2ccc3c(ccn3C3CC(C)(C)NC(C)(C)C3)c2)n1` [NVS-CECR2-1], the efficacy with HCT116 [1] is -93.7%. For the same compound, the AC50 cell viability in the assay with HCT116 [2] is 2.78 µM.
The like results for `COc1ccccc1N1CCN(CC(O)COc2cccc3ccccc23)CC1` (centres undefined) [Naftopidil] were, in that order, -57.2% and 18.6 µM.
Turning to `CNC(=O)[C@H]1O[C@@H](n2cnc3c(NCc4cccc(I)c4)nc(Cl)nc32)[C@H](O)[C@@H]1O` [Namodenoson], the efficacy with HCT116 [1] is -94.8%. The AC50 cell viability in the assay on HCT116 [2] came out at 23.5 µM.
Take `CO[C@H]1CCC(O[C@H]2C[C@H]([C@]3(C)CC[C@]4(C[C@H](O)[C@@H](C)[C@@H]([C@@H](C)/C=C(\C)C(=O)[C@H](C)C[C@H](C)C(=O)[O-])O4)O3)O[C@]3(O[C@@H]([C@H]4O[C@@](O)(CO)[C@H](C)C[C@@H]4C)C[C@@H]3C)[C@@H]2C)O[C@@H]1C` (some centres undefined) [Nanchangmycin]: in the assay on HCT116 [1], the efficacy was -101%. The same compound gave an AC50 cell viability in the assay with HCT116 [2] of 2.95 µM.
For `CC(=O)c1cc2c(o1)C(=O)c1ccccc1C2=O` [Napabucasin], in that order: -93.8% and 0.934 µM.
Consider `C=CC(=O)N1CC[C@@H](Oc2nc(Nc3ccc(N4CCC(N5CCN(C)CC5)CC4)cc3)c(C(N)=O)nc2CC)C1` [Naquotinib mesylate], for which the efficacy in the assay on HCT116 [1] was -103%. The AC50 cell viability with HCT116 [2] amounted to 3.23 µM.
For the compound `CC1(C)CCC(=C(CN2CCN(CC2)C3=CC=C(C=C3)C(=O)N[S+]([O-])(=O)C4=CC(=C(N[C@H](CCN5CCOCC5)CSC6=CC=CC=C6)C=C4)[S+]([O-])(=O)C(F)(F)F)\C1)/C7=CC=C(Cl)C=C7` [Navitoclax (ABT-263)], the efficacy in the assay on HCT116 [1] was -90.7%. For the same compound, in the assay with HCT116 [2], the AC50 cell viability was 13.2 µM.
As to `Cc1c(O)cccc1C(=O)NC(CSc1ccccc1)C(O)CN1CC2CCCCC2CC1C(=O)NC(C)(C)C` (centres undefined) [Nelfinavir], the efficacy with HCT116 [1] was -101%. The AC50 cell viability in the assay on HCT116 [2] was 20.9 µM.
For `COc1cccc2c1C(=O)c1c(O)c3c(c(O)c1C2=O)C[C@@](O)(C(=O)CO)CC3OC1CC(N2CCOC(OC)C2)C(O)C(C)O1` (some centres undefined) [Nemorubicin], in the assay with HCT116 [1], the efficacy is -66%. Also, the AC50 cell viability in the assay on HCT116 [2] was determined as 0.0263 µM.
`CCOc1cc2ncc(C#N)c(Nc3ccc(OCc4ccccn4)c(Cl)c3)c2cc1NC(=O)/C=C/CN(C)C` [Neratinib]: the efficacy in the assay with HCT116 [1] is -72.5%. The compound further had an AC50 cell viability with HCT116 [2] of 2.35 µM.
As for `Cc1ccc(C(=O)OCc2ccc([C@@H](CN)C(=O)Nc3ccc4cnccc4c3)cc2)c(C)c1` [Netarsudil], in the assay with HCT116 [1], the efficacy is -108%. For the same compound, in the assay with HCT116 [2], the AC50 cell viability was determined as 8.11 µM.
In the case of `O=C(Nc1ccc([N+](=O)[O-])cc1Cl)c1cc(Cl)ccc1O` [Niclosamide], the efficacy in the assay on HCT116 [1] was -90.8%. The AC50 cell viability in the assay with HCT116 [2] was found to be 1.05 µM.
For `COC(=O)C/1=C(C)/N/C(=C(\C1C2=CC(=CC=C2)[N+]([O-])=O)C(=O)OCCCN3CCC(CC3)(C4=CC=CC=C4)C5=CC=CC=C5)C` (centres undefined) [Niguldipine], in the assay on HCT116 [1], the efficacy was -98.1%. The compound further came in with an AC50 cell viability with HCT116 [2] of 8.33 µM.
In the case of `Cc1cn(-c2cc(NC(=O)c3ccc(C)c(Nc4nccc(-c5cccnc5)n4)c3)cc(C(F)(F)F)c2)cn1` [Nilotinib], the efficacy in the assay with HCT116 [1] was -46.8%. Moreover, the AC50 cell viability in the assay on HCT116 [2] was 1.66 µM.
Consider `COC(=O)c1ccc2c(c1)NC(=O)/C2=C(\Nc1ccc(N(C)C(=O)CN2CCN(C)CC2)cc1)c1ccccc1` [Nintedanib], for which the efficacy in the assay on HCT116 [1] is -92.2%. Also, the AC50 cell viability in the assay with HCT116 [2] stood at 5.9 µM.
The like results for `NC(=O)c1cccc2cn(-c3ccc([C@@H]4CCCNC4)cc3)nc12` [Niraparib] were, in that order, -92% and 18.6 µM.
For `CCC[C@H](N[C@H]1CCc2cc(F)cc(F)c2C1)C(=O)Nc1cn(C(C)(C)CNCC(C)(C)C)cn1` [Nirogacestat], in that order: -90.3% and 20.9 µM.
